Measured values taken from article PMC8469090 (Pharmaceutics, 2021).

Tested on: cutaneous tumors (basal cell carcinoma, squamous cell carcinoma, melanoma, and others)
Assay: Tumor response 2 months after electrochemotherapy (RECIST 1.1)
Conditions: for tumor complete response rate 2 months after therapy: biopsied tumors, electrochemotherapy with i.v. bleomycin 15,000 IU/m^2; for Tumor Response (All Tumors): electrochemotherapy, 2 months, RECIST 1.1
Description: All patients who presented with skin cancers, recurrent disease (and/or metastatic disease) or a second primary tumor in the head and neck region were either not suitable for conventional treatments or refused them. The patients were treated with electrochemotherapy at the Department of Otorhinolaryngology and Cervicofacial Surgery, University Medical Centre Ljubljana, Slovenia or the Department of Dermatology and Allergology, University of Szeged, Hungary. […] Treatment with electrochemotherapy was previously agreed upon by a multidisciplinary board, and written informed consent was obtained from all eligible patients. The selection of patients was performed according to the NICE guidelines. The included patients were older than 18 years and presented with different histologies of cutaneous tumors (basal cell carcinoma, squamous cell carcinoma, melanoma, and others). […] In the study, altogether 25 patients were included; 8 patients younger than 65 for blood sample collection, 4 patients younger than 65 for blood and tumor sample collection and 13 patients for tumor sample collection with no age limitation.
Electrochemotherapy was performed according to the updated standard operating procedures [24]. […] Electric pulses for electrochemotherapy were generated by a Cliniporator pulse generator (IGEA, s.r.l., Carpi, Italy) and delivered by fixed geometry electrodes, i.e., mainly electrodes with eight needles arranged in two rows of four needles each with a distance of 4 mm between the rows. In one application of electric pulses, eight pulses with a voltage of 400 V, a pulse duration of 100 µs and a frequency of 5000 Hz were applied. The number of applications was adjusted to the size of the treated tumors.
The tumor volumes were calculated according to the SOP, i.e., a × b^2 × π/6. Tumor response 2 months after electrochemotherapy was evaluated with a clinical exam according to RECIST 1.1 criteria [25].

Substance: bleomycin
- tumor complete response rate 2 months after therapy (BCC (8/9)): 89%
- tumor complete response rate 2 months after therapy (SCC (4/5)): 80%
- Tumor Response (All Tumors) (Table 3 patient 1 (BCC, 3 lesions, 24,000 IU)): 1 CR, 2 PR
- Tumor Response (All Tumors) (Table 3 patient 5 (BCC, 5 lesions, 27,000 IU)): 4 CR, 1 SD
- Tumor Response (All Tumors) (Table 3 patient 7 (BCC, 5 lesions, 24,000 IU)): 5 CR
- Tumor Response (All Tumors) (Table 3 patient 11 * (SCC, 6 lesions, 30,000 IU)): 6 CR
- Tumor Response (All Tumors) (Table 3 patient 15 * (Melanoma, 3 lesions, 29,100 IU)): 3 CR
- Tumor Response (All Tumors) (Table 3 patient 17 (Porocarcinoma, 2 lesions, 29,850 IU)): 2 CR
- Tumor Response (All Tumors) (Table 3 patient 19 (BCC, 16 lesions, 21,900 IU)): 11 CR, 5 PR
